This is an account of results in ChEMBL document CHEMBL1275564, “Minimal pharmacokinetic interaction between the human immunodeficiency virus nonnucleoside reverse transcriptase inhibitor etravirine and the integrase inhibitor raltegravir in healthy subjects” (Antimicrob Agents Chemother, 2008).

What all share (type): ADME, organism-based
Series [1] can be described thus: Trough drug concentration at 12 hrs in healthy human plasma at 200 mg, po twice a day for 8 days by reverse-phase HPLC-MS method. To be noted: read-out: Cmin.
Series [2] can be described thus: Trough drug concentration at 12 hrs in healthy human plasma at 200 mg, po twice a day for 4 days coadministered with 400 mg of raltegravir, po twice a day for 4 days by reverse-phase HPLC-MS method. The note with it: read-out: Cmin.
For series [3], the system named is Homo sapiens. Description: AUC (0 to 12 hrs) in healthy human plasma at 200 mg, po twice a day for 8 days by reverse-phase HPLC-MS method. To be noted: in vivo. Further details: time < 12 hr, dose 200 mg, route oral.
In series [4] the test system is Homo sapiens. The series can be described thus: AUC (0 to 12 hrs) in healthy human plasma at 200 mg, po twice a day for 4 days coadministered with 400 mg of raltegravir, po twice a day for 4 days by reverse-phase HPLC-MS method. The arrangement: time < 12 hr, dose 200 mg, route oral. The note with it: in vivo.
Series [5] is described as follows: Cmax in healthy human plasma at 200 mg, po twice a day for 8 days by reverse-phase HPLC-MS method. Further details: dose 200 mg, route oral.
Series [6] can be described thus: Cmax in healthy human plasma at 200 mg, po twice a day for 4 days coadministered with 400 mg of raltegravir, po twice a day for 4 days by reverse-phase HPLC-MS method. Further details: dose 200 mg, route oral.
Series [7] can be described thus: Tmax in healthy human plasma at 200 mg, po twice a day for 8 days by reverse-phase HPLC-MS method.
Series [8] can be described thus: Tmax in healthy human plasma at 200 mg, po twice a day for 4 days coadministered with 400 mg of raltegravir, po twice a day for 4 days by reverse-phase HPLC-MS method.
Series [9] in a line: Trough drug concentration at 12 hrs in healthy human plasma at 400 mg, po twice a day for 4 days by reverse-phase HPLC-MS method. The note with it: read-out: Cmin.
Series [10] is described as follows: Trough drug concentration at 12 hrs in healthy human plasma at 400 mg, po twice a day for 4 days coadministered with 200mg of etravirine twice a day for 4 days by reverse-phase HPLC-MS method. The note with it: read-out: Cmin.
The nature of series [11]: AUC (0 to 12 hrs) in healthy human plasma at 400 mg, po twice a day for 4 days by reverse-phase HPLC-MS method. Further details: dose 400 mg, time < 12 hr, route oral.
The nature of series [12]: AUC (0 to 12 hrs) in healthy human plasma at 400 mg, po twice a day for 4 days coadministered with 200mg of etravirine twice a day for 4 days by reverse-phase HPLC-MS method. Further details: time < 12 hr, dose 400 mg, route oral.
Series [13] is described as follows: Cmax in healthy human plasma at 400 mg, po twice a day for 4 days by reverse-phase HPLC-MS method. The arrangement: dose 400 mg, route oral.
Series [14] can be described thus: Cmax in healthy human plasma at 400 mg, po twice a day for 4 days coadministered with 200mg of etravirine twice a day for 4 days by reverse-phase HPLC-MS method. Further details: dose 400 mg, route oral.
Series [15] is described as follows: Tmax in healthy human plasma at 400 mg, po twice a day for 4 days by reverse-phase HPLC-MS method.
Series [16] is described as follows: Tmax in healthy human plasma at 400 mg, po twice a day for 4 days coadministered with 200mg of etravirine twice a day for 4 days by reverse-phase HPLC-MS method.

As a reminder, the AUC is the area under the concentration-time curve, a measure of exposure. By Cmax is commonly meant the highest concentration seen after dosing. What is called Tmax is the time at which the peak concentration occurs.

As to `Cc1cc(C#N)cc(C)c1Oc1nc(Nc2ccc(C#N)cc2)nc(N)c1Br` [ETRAVIRINE], the concentration at 12 h was determined as 373 ng/mL in series [1] and 439 ng/mL in [2]. Also, the area under the curve (AUC) in series [3] was found to be 6220 ng·h/mL; in [4], 6810 ng·h/mL. Also, the Cmax in series [5] is 734 ng/mL; in series [6], 766 ng/mL. Moreover, the Tmax in series [7] and in series [8] was 4 h each time.
As for `Cc1nnc(C(=O)NC(C)(C)c2nc(C(=O)NCc3ccc(F)cc3)c(O)c(=O)n2C)o1` [RALTEGRAVIR], the concentration at 12 h in series [9] came to 216 nM; in [10] it was 142 nM. Moreover, the AUC at 12 h in series [11] worked out at 7.01 µM·h; in series [12] it was 6.28 µM·h. Moreover, the Cmax in series [13] came to 1740 nM; in [14], 1540 nM. In addition, the Tmax in [15] came out at 1.5 h; in series [16], 3 h.
